Assay results published in US10144715B2, “Piperazine derivatives as liver X receptor modulators” (priority 2014, dated 2018).
Like-named read-outs stand apart in the source and are kept apart here.

Assays:
[1] = biological target: T1, Gal4 DNA binding domain fused to the LBD of LXRβ in HEK293 cells (Homo sapiens (Human), UniProt P55055); assay: cell-based
[2] = biological target: T1, Gal4 DNA binding domain fused to the LBD of LXRβ in HEK293 cells; assay: cell-based; format: cell-based
[3] = biological target: T2, Gal4 DNA binding domain fused to the LBD of LXRα in HEK293 cells (Homo sapiens (Human), UniProt Q13133); assay: LXR luciferase transcriptional reporter gene assay, agonist mode, LXRα; format: cell-based; settings: for EC50: read-out: Cell LXRα EC50
[4] = biological target: T3, LXR β LBD protein (Homo sapiens (Human), UniProt P55055); assay: biochemical; format: binding; settings: read-out: LXRβ Binding Ki
Target sequence in this assay (P55055 222-460 limits assumed): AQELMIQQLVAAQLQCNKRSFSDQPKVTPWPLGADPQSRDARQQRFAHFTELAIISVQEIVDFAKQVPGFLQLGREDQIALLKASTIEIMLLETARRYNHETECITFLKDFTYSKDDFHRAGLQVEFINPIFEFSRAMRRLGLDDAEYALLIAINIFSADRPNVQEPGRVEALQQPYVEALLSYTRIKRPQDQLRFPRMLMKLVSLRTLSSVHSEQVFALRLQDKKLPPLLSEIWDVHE

[5] = biological target: T2, Gal4 DNA binding domain fused to the LBD of LXRα in HEK293 cells; assay: LXR luciferase transcriptional reporter gene assay, antagonist mode (200 nM T0901317), LXRα; format: cell-based; settings: for IC50: read-out: Cell LXRα IC50
[6] = biological target: T4, LXR α LBD protein (Homo sapiens (Human), UniProt Q13133); assay: Human LXRα coactivator recruitment FRET assay, agonist mode; format: biochemical; settings: agonist mode
How it was run: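 LXRα- or LXRβ-LBD at 10 nM (2×) mixed with compound in DMSO, then fluorescein-SRC2-3 peptide 200 nM and Tb-anti-GST antibody 20 nM (4×) added; 2 h at rt. Time-resolved FRET read, 100 µs delay, 200 µs window; EC50 from four-parameter fit of percent control.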

[7] = biological target: T4, LXR α LBD protein; assay: LXR α radioligand binding assay (SPA, competition with [3H]TO901317); settings: read-out: LXRα Binding Ki
[8] = biological target: T3, LXR β LBD protein; assay: biochemical; format: biochemical
Target sequence in this assay (P55055 222-460): as the sequence (P55055 222-460 limits assumed) above

[9] = antagonist mode, 200 nM T0901317, HEK293 reporter gene assay

T1 sequence (P55055 222-460 limits assumed): as above
T4 sequence (Q13133 209-447): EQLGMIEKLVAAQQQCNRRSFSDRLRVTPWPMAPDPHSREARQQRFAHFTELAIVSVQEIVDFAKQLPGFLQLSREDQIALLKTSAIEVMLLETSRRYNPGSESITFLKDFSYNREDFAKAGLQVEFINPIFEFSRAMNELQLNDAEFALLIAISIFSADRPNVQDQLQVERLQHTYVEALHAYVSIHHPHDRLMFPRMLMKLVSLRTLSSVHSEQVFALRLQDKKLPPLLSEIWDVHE
T2 sequence (Q13133 209-447): as above

Structure (SMILES) | EC50 [1] [nM] | Cell LXRβ efficacy ([1]; agonist mode) | IC50 [2] [nM] | Cell LXRβ efficacy [2, 9] | Cell LXRα efficacy [3] | EC50 ([3]; agonist mode) [nM] | Ki [4] [nM] | IC50 [5, 9] [nM] | Cell LXRα efficacy [5] | Cell LXRβ efficacy [2] | IC50 [5] [nM] | EC50 [6] [nM] | FRET LXRα efficacy [6] [%] | EC50 [3] [nM] | Ki [7] [nM] | Cell LXRβ efficacy [1] | FRET LXRβ efficacy [8] | EC50 ([8]; read-out: FRET LXRβ EC50) [nM]
CC(C)[C@@H]1CN(c2ccc(F)c(S(C)(=O)=O)c2)CCN1c1ncc(CN(C)C)c(C(F)(F)F)n1 [15-3, (R)-1-(2-(4-(4-fluoro-3-(methylsulfonyl)phenyl)-2-isopropylpiperazin-1-yl)-4-(trifluoromethyl)pyrimidin-5-yl)-N,N-dimethylmethanamine] | 74 | 74 (17) % | 900 | 900 (93) % | 1144 (25) % | 1140 | 47 | – | – | – | – | – | – | – | – | – | – | –
CC(C)[C@@H]1CN(c2ccc(F)c(S(C)(=O)=O)c2)CCN1c1ncc(C(=O)N2CCOCC2)c(C(F)(F)F)n1 [17-8, (R)-(2-(4-(4-fluoro-3-(methylsulfonyl)phenyl)-2-isopropylpiperazin-1-yl)-4-(trifluoromethyl)pyrimidin-5-yl)(morpholino)methanone] | > 20000 | – | 538 | 538 (91) % | – | > 20000 | 311 | 2280 | – | – | – | – | – | – | – | – | – | –
CCOC(=O)CCN(C)C(=O)c1cnc(N2CCN(c3ccc(F)c(S(C)(=O)=O)c3)C[C@H]2C(C)C)nc1C(F)(F)F [17-18, ethyl (R)-3-(2-(4-(4-fluoro-3-(methylsulfonyl)phenyl)-2-isopropylpiperazin-1-yl)-N-methyl-4-(trifluoromethyl)pyrimidine-5-carboxamido)propanoate] | > 20000 | – | 186 | – | – | > 20000 | 129 | 1160 | 1159 (92) % | 186 (98) % | – | – | – | – | – | – | – | –
CS(=O)(=O)c1cccc(N2CCN(C[C@H]3CC[C@H](C(F)F)CC3)[C@@H](c3ccccc3)C2)c1 (single isomer, unassigned) [48-19] | – | – | – | – | 712 (25) % | – | – | – | 1630 (67) % | – | 1630 | 1880 | 13 | 712 | 313 | – | – | –
CC(C)[C@@H]1CN(c2ccc(F)c(S(C)(=O)=O)c2)CCN1c1ncc(C(=O)N(C)C)c(C(F)(F)F)n1 [Cpd No 17-1, (R)-2-(4-(4-fluoro-3-(methylsulfonyl)phenyl)-2-isopropylpiperazin-1-yl)-N,N-dimethyl-4-(trifluoromethyl)pyrimidine-5-carboxamide] | 244 | – | 667 | – | – | – | 123 | – | – | 667 (84) % | – | – | – | – | – | 244 (8) % | – | –
CC(C)(O)[C@@H]1CN(c2cccc(S(C)(=O)=O)c2)CCN1c1nccc(C(F)(F)F)n1 [7-24, (S)-2-(4-(3-(methylsulfonyl)phenyl)-1-(4-(trifluoromethyl)pyrimidin-2-yl)piperazin-2-yl)propan-2-ol] | 275 | – | 9 | – | 1586 (50) % | – | 43 | – | – | 9 (64) % | – | 457 | 83 | 1590 | 1030 | 275 (37) % | 14 (74) % | 14
CC(C)[C@@H]1CN(c2ccc(F)c(S(C)(=O)=O)c2)CCN1c1ncc(CN2CC(O)C2)c(C(F)(F)F)n1 [15-4, (R)-1-((2-(4-(4-fluoro-3-(methylsulfonyl)phenyl)-2-isopropylpiperazin-1-yl)-4-(trifluoromethyl)pyrimidin-5-yl)methyl)azetidin-3-ol] | 182 | 182 (13) % | 1440 | 1438 (104) % | 2838 (20) % | 2840 | 100 | – | – | – | – | – | – | – | – | – | – | –
CC(C)[C@@H]1CN(c2ccc(CO)c(S(C)(=O)=O)c2)CCN1c1ncc(C(N)=O)c(C(F)(F)F)n1 [Cpd No 17-25, (R)-2-(4-(4-(hydroxymethyl)-3-(methylsulfonyl)phenyl)-2-isopropylpiperazin-1-yl)-4-(trifluoromethyl)pyrimidine-5-carboxamide] | 46 | 46 (13) % | 359 | 359 (99) % | 1127 (18) % | 1130 | – | 3650 | 3652 (98) % | – | – | – | – | – | – | – | – | –
CC(C)(C)OC(=O)N1CCN(c2cccc(S(C)(=O)=O)c2)C[C@H]1Cc1ccccc1 [1-8, tert-butyl (R)-2-benzyl-4-(3-(methylsulfonyl)phenyl)piperazine-1-carboxylate] | – | – | – | – | 1146 (34) % | 1150 | – | 4710 | – | – | – | 105 | 18 | – | – | – | – | –
CC(C)[C@@H]1CN(c2ccc(C(N)=O)c(S(C)(=O)=O)c2)CCN1c1nccc(C(F)(F)F)n1 [4-2, (R)-4-(3-isopropyl-4-(4-(trifluoromethyl)pyrimidin-2-yl)piperazin-1-yl)-2-(methylsulfonyl)benzamide] | – | – | – | – | 1172 (71) % | 1170 | – | > 10000 | – | – | – | 293 | 87 | – | – | – | – | –
CC(C)[C@@H]1CN(c2ccc(F)c(S(C)(=O)=O)c2)CCN1c1ncc(CNS(C)(=O)=O)c(C(F)(F)F)n1 [15-7, (R)-N-((2-(4-(4-fluoro-3-(methylsulfonyl)phenyl)-2-isopropylpiperazin-1-yl)-4-(trifluoromethyl)pyrimidin-5-yl)methyl)methanesulfonamide] | 198 | 198 (18) % | 1770 | 1773 (113) % | 2315 (23) % | – | 40 | – | – | – | – | – | – | 2320 | 512 | – | – | –
CC(C)[C@@H]1CN(c2cccc(S(C)(=O)=O)c2)CCN1c1ccnc(C(F)(F)F)n1 [7-50, (R)-4-(2-isopropyl-4-(3-(methylsulfonyl)phenyl)piperazin-1-yl)-2-(trifluoromethyl)pyrimidine] | – | – | – | – | 2029 (50) % | 2030 | – | 4590 | 4587 (78) % | – | – | 298 | 59 | – | – | – | – | –
CC(C)[C@@H]1CN(c2ccc(F)c(S(C)(=O)=O)c2)CCN1c1nccc(OCC(F)(F)F)n1 [44-3, (R)-2-(4-(4-fluoro-3-(methylsulfonyl)phenyl)-2-isopropylpiperazin-1-yl)-4-(2,2,2-trifluoroethoxy)pyrimidine] | > 20000 | – | 91 | – | – | – | 67 | – | – | 91 (93) % | – | – | – | – | – | – | – | –
CC(C)[C@@H]1CN(c2cc(F)c(CO)c(S(C)(=O)=O)c2)CCN1c1ncc(C(N)=O)c(C(F)(F)F)n1 [Cpd No 17-28, (R)-2-(4-(3-fluoro-4-(hydroxymethyl)-5-(methylsulfonyl)phenyl)-2-isopropylpiperazin-1-yl)-4-(trifluoromethyl)pyrimidine-5-carboxamide] | 20 | 20 (9) % | 182 | 182 (98) % | 913 (9) % | 913 | – | 2550 | – | – | – | – | – | – | – | – | – | –
CS(=O)(=O)c1cccc(N2CCN(Cc3ccc(C(F)(F)F)c(Cl)c3)C(C3CCCCC3)C2)c1 (centres unmarked) [46-27, 1-(3-chloro-4-(trifluoromethyl)benzyl)-2-cyclohexyl-4-(3-(methylsulfonyl)phenyl)piperazine] | – | – | – | – | 1100 (77) % | 1100 | – | > 10000 | – | – | – | 157 | 79 | – | – | – | – | –
CS(=O)(=O)c1cccc(N2CCN(C[C@H]3CC[C@@H](C(F)F)CC3)[C@@H](c3ccccc3)C2)c1 (single isomer, unassigned) [Cpd No 48-17] | – | – | – | – | 127 (39) % | 127 | – | 1350 | – | – | – | 287 | 36 | – | 60 | – | – | –
CC1(C)CCC(CN2CCN(c3cccc(S(C)(=O)=O)c3)C[C@@H]2c2ccccc2)CC1 [Cpd No 48-4, (S)-1-((4,4-dimethylcyclohexyl)methyl)-4-(3-(methylsulfonyl)phenyl)-2-phenylpiperazine] | – | – | – | – | 279 (61) % | – | – | – | 6447 (79) % | – | 6450 | 301 | 39 | 279 | 39 | – | – | –
CC(C)[C@@H]1CN(c2cccc(S(C)(=O)=O)c2)CCN1c1ncc(Cl)cn1 [Cpd No 7-4, (R)-5-chloro-2-(2-isopropyl-4-(3-(methylsulfonyl)phenyl)piperazin-1-yl)pyrimidine] | – | – | – | – | 1219 (70) % | 1220 | – | > 10000 | – | – | – | 281 | 76 | – | – | – | – | –
CC(C)COC(=O)N1CCN(c2cccc(S(C)(=O)=O)c2)C[C@H]1C(C)C [5-7, isobutyl (R)-2-isopropyl-4-(3-(methylsulfonyl)phenyl)piperazine-1-carboxylate] | – | – | – | – | 1919 (44) % | 1920 | – | 5120 | – | – | – | 340 | 58 | – | – | – | – | –
